Laboratory results from PMC6222780, “Synthesis, Spectroscopic Analysis and Assessment of the Biological Activity of New Hydrazine and Hydrazide Derivatives of 3-Formylchromone” (Molecules : A Journal of Synthetic Chemistry and Natural …, 2018).

Key:
[1] = tested on: L929 cell line (mouse fibroblast cell line); test: XTT assay, cell proliferation study; assay type: cell-based; settings: for IC50 / The Range of Influence [%, Control = 100%] / Stimulating effect on proliferation: L929, XTT; for IC50: 24 h incubation, 0.01–1250 µmol/L; for The Range of Influence [%, Control = 100%]: viability over 0.01–1250 µmol/L
Experimental: (§1) Four independent experiments (n = 4 for each used concentration) were performed. […] This indicates good or very good (in the case of 1, 3, 5, 8, 11) selectivity of action. […] Due to the dual action of these compounds, it would be advisable to study their effect on stimulation of proliferation at concentrations below 0.01 μmol/L. This dual action may be desirable during therapy, because the dosage may affect the nature of the compounds.
The mouse fibroblast cell line L929 (Sigma-Aldrich) was grown in MEM (Minimum Essential Medium) (Biowest, Nuaillé, France) containing 10% of Fetal Bovine Serum (Biowest), 1 mmol/L sodium pyruvate (Biological Industries, Cromwell, CT, USA), 0.5 mmol/L non-essential amino acids (Sigma-Aldrich) and 100 units/mL penicillin with […] streptomycin (Biological Industries) in an incubator at 37 °C with 5% CO2. Cells were plated and grown to 80% confluence before the initiation of the assay.
(§2) The XTT assay was used to evaluate cell metabolic activity. […] The number of viable cells is correlated with the colour intensity determined by photometric measurements. XTT (Serva, Heidelberg, Germany) was dissolved in MEM without phenol red (PAN-Biotech, Aidenbach, Germany) or DMEM without phenol red (PAN-Biotech) at a concentration of 1 mg/mL. Phenazine metosulphate (PMS) (Serva) was dissolved in phosphate-buffered saline (PBS, 5 mmol/L). PMS solution was then added to the XTT solution at a concentration of 25 μM. Investigated compounds were dissolved in dimethyl sulfoxide (DMSO) to obtain stock solutions.
(§3) L929 and EA.hy926 cells were seeded into 96-well plates at a density of 1 × 10^4 cells per well. They were cultured for 24 h in the incubator (37 °C and 5% CO2). After that time, the medium was removed. Then the 100 µL of medium containing investigated compounds (in the range of concentration 0.01–1250 µmol/L) or only culture medium (blank control) were added. Cisplatin was used as a reference compound. Cells were further incubated for 24 h. At the third day, the old medium were removed and cells were washed with PBS. 100 µL of culture medium with the additional 50 µL of the XTT/PMS solution were added to each well. Plates were incubated in the dark for 3 h at 37 °C. Then, the plates were swayed and an aliquot of 100 µL from each well was transferred into the corresponding well of a new plate. Finally, the absorbance was measured by using the microplate reader (Synergy H1, BioTek, Winooski, VT, USA) at a wavelength of 450 nm. The cell viability was expressed as a percentage of the control values (blanks).

[2] = tested on: EA.hy926 cell line (the human umbilical vein, somatic cell hybrid); test: XTT assay, cell proliferation study; assay type: cell-based; settings: for IC50 / The Range of Influence [%, Control = 100%] / Stimulating effect on proliferation: EA.hy926, XTT; for IC50: 24 h incubation, 0.01–1250 µmol/L; for The Range of Influence [%, Control = 100%]: viability over 0.01–1250 µmol/L; for Selectivity of action (IC50 EA.hy926 versus L929): IC50 lower for EA.hy926 than for L929
Experimental: as §1
The EA.hy926 cell line (the human umbilical vein, somatic cell hybrid, American Type Culture Collection, Manassas, VA, USA) was used to evaluate the cytotoxicity of novel compounds. Cells were grown in Dulbecco’s Modified Eagle’s Medium (DMEM) which contains 10% of Fetal Bovine Serum (Biowest), 2 mmol/L glutamine (Sigma-Aldrich) and 100 units/mL penicillin with […] streptomycin (Biological Industries). Cells were plated and grown in an incubator at 37 °C with 5% CO2 to 80% confluence before the initiation of the assay.
as §2, §3

[3] = tested on: Streptococcus pneumoniae ATCC 49619; test: Disc diffusion, inhibition of growth zones; assay type: cell-based; settings: S. pneumoniae; discs at 100 or 200 µg/mL, 24 h at 37 °C
Experimental: (§4) Fifteen strains of microorganisms from different species were used. The growth inhibition zones were evaluated in two independent experiments (n = 2 in each of them), and the potential inhibitors of microbial growth are presented in Table 3. The hydrazine and hydrazide derivatives of 3-formylchromone constitute a class of potential antimicrobial agents and are worthy of further investigation. […] In case of N. meningitidis (result with *) the action of 9 was noted just for 100 µg/mL and the influence in concentration of 200 µg/mL was not observed.
(§5) The microbial reference strains representing different families of bacteria and fungi, pathogenic for man and animals, were used. The 15 strains were derived from international microbial collections held by the Department of Pharmaceutical Microbiology and Microbiological Diagnostics of the Medical University of Lodz: Candida albicans ATCC 10231, Enterococcus faecalis ATCC 29212, Klebsiella pneumoniae ATCC 700603, Pseudomonas aeruginosa NCTC 6749, Proteus vulgaris CCM 1799, Staphylococcus epidermidis ATCC 12228, Shigella flexneri ATCC 12022, Streptococcus pneumoniae ATCC 49619, Streptococcus pyogenes ATCC 19615, Corynebacterium jeikeium K411, Escherichia coli ATCC 25922, Staphylococcus aureus NCTC 4135, Streptococcus dysgalactiae subsp. equisimilis ATCC 12394, Neisseria meningitidis DSM 25942, Listeria monocytogenes PCM 2191.
(§6) The strains were stored at −80 °C, frozen in a 1:1 mixture of Brain Heart Infusion (BHI) broth and glycerol. The reference strains, depending on the growth requirements, were grown on a solid medium—nutrient agar, nutrient agar with 5% addition of lambs defibrinated blood or (in the case of Corynebacterium jeikeium) Triptic Soy Agar (TSA) with the addition of sheep blood, yeast extract and Tween-80. The susceptibility of the strains to chemical compounds was measured analogously to the adopted method of diffusion and disc preparation of antibiotics for compounds introduced into treatment. After receiving the pure culture of the reference strain, obtained from frozen samples and grown on the appropriate medium for growth requirements, suspensions of the tested strains were prepared in a physiological NaCl solution with a density of 0.5 on the McFarland scale. These suspensions were seeded with a cotton ball over the entire surface of the test medium. Discs impregnated with the test compound at a concentration of 100 or 200 µg/mL were then placed on it and incubated for 24 h at 37 °C.

[4] = tested on: Fifteen strains of microorganisms from different species; test: Initial antimicrobial screening by disc diffusion on the whole panel; assay type: cell-based; settings: 15 strains, discs at 100 or 200 µg/mL
Experimental: as §4, §5, §6

[5] = tested on: Staphylococcus epidermidis ATCC 12228; test: Disc diffusion, inhibition of growth zones; assay type: cell-based; settings: S. epidermidis; discs at 100 or 200 µg/mL, 24 h at 37 °C
Experimental: as §4, §5, §6

[6] = tested on: Neisseria meningitidis DSM 25942; test: Disc diffusion, inhibition of growth zones; assay type: cell-based; settings: N. meningitidis
Experimental: as §4, §5, §6

[7] = tested on: Staphylococcus aureus NCTC 4135; test: Disc diffusion, inhibition of growth zones; assay type: cell-based; settings: S. aureus; discs at 100 or 200 µg/mL, 24 h at 37 °C
Experimental: as §4, §5, §6

[8] = tested on: Streptococcus pyogenes ATCC 19615; test: Disc diffusion, inhibition of growth zones; assay type: cell-based; settings: S. pyogenes; discs at 100 or 200 µg/mL, 24 h at 37 °C
Experimental: as §4, §5, §6

| Molecule | IC50 [1] [µM] | The Range of Influence [%, Control = 100%] [1] | IC50 [2] [µM] | The Range of Influence [%, Control = 100%] [2] | Inhibition of growth zones (lowest effective studied concentration) [3] [µg/mL] | Stimulating effect on proliferation [1] | Stimulating effect on proliferation [2] | Selectivity of action (IC50 EA.hy926 versus L929) [2] | Inhibition of microbial growth (result in words) [4] | Inhibition of growth zones (lowest effective studied concentration) [5] [µg/mL] | IC50 ([1]; Mus musculus) [µM] | melting point [°C] | Influence on growth at 200 µg/mL ([6]; disc at 200 µg/mL) | Inhibition of growth zones (lowest effective studied concentration) ([6]; discs at 100 or 200 µg/mL, 24 h at 37 °C) [µg/mL] | Inhibition of growth zones (lowest effective studied concentration) [7] [µg/mL] | Inhibition of growth zones (lowest effective studied concentration) [8] [µg/mL] | IC50 value lower than ligand 5 ([1]; L929, complex 11 compared with ligand 5) [%] | IC50 value lower than ligand 5 ([2]; EA.hy926, complex 11 compared with ligand 5) [%] |
| --- | --- | --- | --- | --- | --- | --- | --- | --- | --- | --- | --- | --- | --- | --- | --- | --- | --- | --- |
| N.N.[Cl][Pt][Cl] [Cisplatin, reference compound] | 74.4 | 8.49–55.70% | 67.4 | 8.71–75.14% |  |  |  |  |  |  |  |  |  |  |  |  |  |  |
| O=c1c(C=NNc2cc(F)ccc2F)coc2ccccc12 [Compound 1, 3-[(2,5-Difluorophenyl)-hydrazonomethyl]-chromen-4-one] | 209 | 27.64–101.8% | 59.1 | 14.79–106.26% | 100 | weak stimulating effect | weak stimulating effect | very good | exhibit antimicrobial potential |  |  |  |  |  |  |  |  |  |
| O=c1c(C=NNc2ccc(C(F)(F)F)cc2)coc2ccccc12 [Compound 3, 3-[(4-Trifluoromethylphenyl)-hydrazonomethyl]-chromen-4-one] |  | 55.91–96.98% | 975 | 37.40–101.33% |  |  | slightly stimulated | very good | not able to inhibit microbial growth |  |  |  |  |  |  |  |  |  |
| O=c1c(C=NNc2cc(C(F)(F)F)cc(C(F)(F)F)c2)coc2ccccc12 [Compound 4, 3-[(3,5-Bis-trifluoromethylphenyl)-hydrazonomethyl]-chromen-4-one] | 1030 | 45.61–101.31% | 534 | 28.46–102.18% |  | weak stimulating effect | weak stimulating effect |  | exhibit antimicrobial potential | 100 |  |  |  |  |  |  |  |  |
| O=C(N/N=C/c1coc2ccccc2c1=O)c1ccc(F)cc1 [Compound 5, 4-Fluorobenzoic acid [1-(4-oxo-4H-chromen-3-yl)-meth-(E)-ylidene]-hydrazide] |  | 16.03–56.35% |  | 11.81–60.64% |  |  |  | very good | not able to inhibit microbial growth |  | 65.9 | 201 to 202 |  |  |  |  |  |  |
| O=c1c(C=NNc2c(F)c(F)cc(F)c2F)coc2ccccc12 [Compound 6, 3-[(2,3,5,6-Tetrafluorophenyl)-hydrazonomethyl]-chromen-4-one] | 728 | 40.05–93.11% | 578 | 24.47–97.86% |  |  |  |  | not able to inhibit microbial growth |  |  |  |  |  |  |  |  |  |
| Cc1ccc(F)cc1NN=Cc1coc2ccccc2c1=O [Compound 7, 3-[(5-Fluoro-2-methylphenyl)-hydrazonomethyl]-chromen-4-one] | 954 | 44.89–96.11% | 953 | 42.43–101.05% |  |  | slightly stimulated |  | exhibit antimicrobial potential | 100 |  |  |  |  |  |  |  |  |
| O=c1c(C=NNc2c(F)cc(F)cc2F)coc2ccccc12 [Compound 8, 3-[(2,4,6-Trifluorophenyl)-hydrazonomethyl]-chromen-4-one] | 98.5 | 38.11–64.40% | 18.1 | 23.31–63.94% |  |  |  | very good | not able to inhibit microbial growth |  |  |  |  |  |  |  |  |  |
| O=c1c(C=NNc2c(F)c(F)c(F)c(F)c2F)coc2ccccc12 [Compound 9, 3-(Pentafluorophenyl-hydrazonomethyl)-chromen-4-one] | 386 | 13.92–85.11% | 253 | 13.15–69.88% |  |  |  |  | exhibit antimicrobial potential |  |  |  | not observed | 100 |  |  |  |  |
| O=c1c(C=NNc2ccccc2C(F)(F)F)coc2ccccc12 [Compound 10, 3-[(2-Trifluoromethylphenyl)-hydrazonomethyl]-chromen-4-one] | 1210 | 48.62–73.47% | 645 | 31.21–94.69% |  |  |  |  | exhibit antimicrobial potential | 100 |  |  |  |  |  |  |  |  |
| Complex of 4-Fluorobenzoic acid [1-(4-oxo-4H-chromen-3-yl)-meth-(E)-ylidene]-hydrazide with Cu (II) [Compound 11] | 35 | 10.30–75.02% |  | 8.58–53.23% |  |  |  | very good | exhibit antimicrobial potential | 100 |  |  |  |  | 100 | 200 | 46.89 | 77.78 |
